Experimental data taken from PubChem BioAssay (NCI).
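Here, GI50 denotes the concentration required for 50% inhibition of growth. Definition used: TGI = concentration required for complete inhibition of growth.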

Key:
Assay in all cases: inhibition of tumour cell growth, NCI panel, 384-well format
[1] = system: COLO 205 colon
[2] = system: HL-60(TB) leukemia
[3] = system: EKVX NSCLC
[4] = system: HS 578T breast
[5] = system: NCI-H226 lung
[6] = system: HCC-2998 colon
[7] = system: A549 NSCLC
[8] = system: SK-MEL-5 melanoma
[9] = system: MOLT-4 leukemia
[10] = system: SK-MEL-28 melanoma
[11] = system: SR leukemia
[12] = system: A498 renal
[13] = system: MDA-MB-231 breast
[14] = system: HOP-92 NSCLC
[15] = system: HCT-15 colon
[16] = system: TK-10 renal
[17] = system: KM12 colon
[18] = system: SNB-75 CNS
[19] = system: SK-OV-3 ovarian
[20] = system: UO-31 renal
[21] = system: SNB-19 CNS
[22] = system: OVCAR-3 ovarian
[23] = system: MDA-MB-468 breast
[24] = system: NCI-H522 lung
[25] = system: HCT-116 colon
[26] = system: ACHN renal
[27] = system: UACC-62 melanoma
[28] = system: 786-0 renal
[29] = system: SN12C renal
[30] = system: SF-268 CNS
[31] = system: RXF 393 renal
[32] = system: SF-295 CNS
[33] = system: MCF7 breast
[34] = system: BT-549 breast
[35] = system: OVCAR-5 ovarian
[36] = system: DU-145 prostate
[37] = system: LOX IMVI melanoma
[38] = system: PC-3 prostate
[39] = system: T-47D breast
[40] = system: NCI-H322M lung
[41] = system: SF-539 CNS
[42] = system: M14 melanoma
[43] = system: MALME-3M melanoma
[44] = system: MDA-MB-435 melanoma
[45] = system: NCI-H23 lung
[46] = system: SW-620 colon
[47] = system: HT29 colon
[48] = system: RPMI-8226 leukemia
[49] = system: OVCAR-8 ovarian
[50] = system: NCI/ADR-RES ovarian
[51] = system: HOP-62 NSCLC
[52] = system: NCI-H460 NSCLC
[53] = system: IGROV1 ovarian
[54] = system: UACC-257 melanoma
[55] = system: OVCAR-4 ovarian
[56] = system: U251 glioblastoma
[57] = system: CAKI-1 renal

Compound: COC(=O)C[C@](O)(CCCC(C)(C)O)C(=O)O[C@@H]1C(OC)=C[C@]23CCCN2CCc2cc4c(cc2[C@H]13)OCO4
- GI50 [1]: 25.9 nM
- TGI [1]: 120 nM
- GI50 [2]: < 10 nM
- TGI [2]: < 10 nM
- GI50 [3]: 36.5 nM
- TGI [3]: 201 nM
- GI50 [4]: 0.018 µM
- TGI [4]: 34.6 nM
- GI50 [5]: 11.9 nM
- TGI [5]: 0.038 µM
- GI50 [6]: < 10 nM
- TGI [6]: 25.3 nM
- GI50 [7]: 18 nM
- TGI [7]: 115 nM
- GI50 [8]: 13 nM
- TGI [8]: 36.6 nM
- GI50 [9]: < 10 nM
- TGI [9]: < 10 nM
- GI50 [10]: 25.7 nM
- TGI [10]: 62.5 nM
- GI50 [11]: < 10 nM
- TGI [11]: < 10 nM
- GI50 [12]: 19 nM
- TGI [12]: 0.0449 µM
- GI50 [13]: 0.0316 µM
- TGI [13]: 105 nM
- GI50 [14]: 37.9 nM
- TGI [14]: 102 nM
- GI50 [15]: 47.7 nM
- TGI [15]: 233 nM
- GI50 [16]: 48.7 nM
- TGI [16]: 0.894 µM
- GI50 [17]: 27.5 nM
- TGI [17]: 183 nM
- GI50 [18]: 32.1 nM
- TGI [18]: 0.0789 µM
- GI50 [19]: 26 nM
- TGI [19]: 172 nM
- GI50 [20]: 295 nM
- TGI [20]: 1090 nM
- GI50 [21]: 29.8 nM
- TGI [21]: > 100 µM
- GI50 [22]: 13.8 nM
- TGI [22]: 0.0411 µM
- GI50 [23]: < 10 nM
- TGI [23]: 19.9 nM
- GI50 [24]: < 10 nM
- TGI [24]: 0.0173 µM
- GI50 [25]: < 10 nM
- TGI [25]: 88.7 nM
- GI50 [26]: 43.2 nM
- TGI [26]: 0.304 µM
- GI50 [27]: 31.8 nM
- TGI [27]: 107 nM
- GI50 [28]: 26 nM
- TGI [28]: 147 nM
- GI50 [29]: 40.4 nM
- TGI [29]: 0.267 µM
- GI50 [30]: 31.1 nM
- TGI [30]: 85.2 nM
- GI50 [31]: 17.4 nM
- TGI [31]: 47.9 nM
- GI50 [32]: 26 nM
- TGI [32]: 55.9 nM
- GI50 [33]: < 10 nM
- TGI [33]: 1450 nM
- GI50 [34]: 17.1 nM
- TGI [34]: 0.0348 µM
- GI50 [35]: 48.9 nM
- TGI [35]: 0.806 µM
- GI50 [36]: 29.9 nM
- TGI [36]: 0.085 µM
- GI50 [37]: < 10 nM
- TGI [37]: 21.9 nM
- GI50 [38]: 26 nM
- TGI [38]: 139 nM
- GI50 [39]: 27.5 nM
- TGI [39]: 187 nM
- GI50 [40]: 84.4 nM
- TGI [40]: 0.287 µM
- GI50 [41]: 17.2 nM
- TGI [41]: 0.0333 µM
- GI50 [42]: 20.3 nM
- TGI [42]: 41.6 nM
- GI50 [43]: 15 nM
- TGI [43]: 33.2 nM
- GI50 [44]: 43.4 nM
- TGI [44]: 130 nM
- GI50 [45]: 17.6 nM
- TGI [45]: 36.9 nM
- GI50 [46]: 30.4 nM
- TGI [46]: 183 nM
- GI50 [47]: 21.4 nM
- TGI [47]: 66.3 nM
- GI50 [48]: < 10 nM
- TGI [48]: 15.5 nM
- GI50 [49]: 25.9 nM
- TGI [49]: 66.8 nM
- GI50 [50]: 1780 nM
- TGI [50]: 7.74 µM
- GI50 [51]: 26.3 nM
- TGI [51]: 134 nM
- GI50 [52]: < 10 nM
- TGI [52]: 17 nM
- GI50 [53]: 24 nM
- TGI [53]: 115 nM
- GI50 [54]: 26.5 nM
- TGI [54]: 0.0656 µM
- GI50 [55]: 0.0265 µM
- TGI [55]: 0.0721 µM
- GI50 [56]: 21.4 nM
- TGI [56]: 0.0669 µM
- GI50 [57]: 0.0424 µM
- TGI [57]: 266 nM

Compound: COC(=O)c1ccc2c(c1)nc(NC(=O)c1ccccc1)n2CCCc1ccccc1
- GI50 [1]: 2040 nM
- TGI [1]: 5780 nM
- GI50 [2]: 413 nM
- TGI [2]: 1750 nM
- GI50 [3]: 1460 nM
- TGI [3]: > 100000 nM
- GI50 [4]: 6.95 µM
- TGI [4]: > 100000 nM
- GI50 [5]: 3410 nM
- TGI [5]: 48.9 µM
- GI50 [6]: 1850 nM
- TGI [6]: > 100000 nM
- GI50 [7]: 3610 nM
- TGI [7]: > 100000 nM
- GI50 [8]: 395 nM
- TGI [8]: 1670 nM
- GI50 [9]: 222 nM
- TGI [9]: 413 nM
- GI50 [10]: 3120 nM
- TGI [10]: > 100000 nM
- GI50 [11]: 203 nM
- TGI [11]: 440 nM
- GI50 [12]: 2080 nM
- TGI [12]: 15.9 µM
- GI50 [13]: 7.06 µM
- TGI [13]: > 100000 nM
- GI50 [14]: 3930 nM
- TGI [14]: > 100000 nM
- GI50 [15]: 478 nM
- TGI [15]: 4000 nM
- GI50 [16]: 2630 nM
- TGI [16]: 34.5 µM
- GI50 [17]: 2330 nM
- TGI [17]: > 100000 nM
- GI50 [18]: 3910 nM
- TGI [18]: 66.8 µM
- GI50 [19]: 973 nM
- TGI [19]: > 100000 nM
- GI50 [21]: 2210 nM
- TGI [21]: 20 µM
- GI50 [22]: 1840 nM
- TGI [22]: 69.4 µM
- GI50 [23]: 2190 nM
- TGI [23]: > 100000 nM
- GI50 [24]: 1490 nM
- TGI [24]: 9.61 µM
- GI50 [25]: 852 nM
- TGI [25]: > 100000 nM
- GI50 [26]: 3990 nM
- TGI [26]: 31.7 µM
- GI50 [27]: 2450 nM
- TGI [27]: > 100000 nM
- GI50 [29]: 2380 nM
- TGI [29]: 8.75 µM
- GI50 [30]: 1810 nM
- TGI [30]: > 100000 nM
- GI50 [31]: 3110 nM
- TGI [31]: > 100000 nM
- GI50 [32]: 3110 nM
- TGI [32]: > 100000 nM
- GI50 [33]: 1650 nM
- TGI [33]: > 100000 nM
- GI50 [34]: 741 nM
- TGI [34]: 6.46 µM
- GI50 [35]: 3940 nM
- TGI [35]: 31.6 µM
- GI50 [36]: 1770 nM
- TGI [36]: 24.4 µM
- GI50 [37]: 946 nM
- TGI [37]: 2810 nM
- GI50 [38]: 4950 nM
- TGI [38]: > 100000 nM
- GI50 [39]: 4130 nM
- TGI [39]: > 100000 nM
- GI50 [40]: 884 nM
- TGI [40]: 8.59 µM
- GI50 [41]: 2130 nM
- TGI [41]: 18 µM
- GI50 [42]: 519 nM
- TGI [42]: 3050 nM
- GI50 [43]: 2900 nM
- TGI [43]: > 100000 nM
- GI50 [44]: 4030 nM
- TGI [44]: > 100000 nM
- GI50 [45]: 1860 nM
- TGI [45]: > 100000 nM
- GI50 [47]: 2720 nM
- TGI [47]: > 100000 nM
- GI50 [48]: 1500 nM
- TGI [48]: 4600 nM
- GI50 [49]: 1580 nM
- TGI [49]: 5250 nM
- GI50 [50]: 458 nM
- TGI [50]: 2.16 µM
- GI50 [51]: 469 nM
- TGI [51]: 3550 nM
- GI50 [52]: 342 nM
- TGI [52]: 1140 nM
- GI50 [53]: 2040 nM
- TGI [53]: > 100000 nM
- GI50 [54]: 2320 nM
- TGI [54]: 9.95 µM
- GI50 [55]: 11.5 µM
- TGI [55]: 65.9 µM
- GI50 [56]: 673 nM
- TGI [56]: 11.3 µM
- GI50 [57]: 6.36 µM
- TGI [57]: > 100000 nM
